Measured values taken from US8106023B2, “1,4-benzothiepin-1, 1-dioxide derivatives with improved properties method for producing the same, drugs containing said compounds and the use thereof” (Sanofi-Aventis Deutschland GmbH, priority 2006, dated 2012).
pIC50: −log10 of the molar value.

Target: T1, human IBAT (Homo sapiens, UniProt Q12908)
T1 construct: Bases 599 to 1645 correspond to the complete coding region of human IBAT; expressed in transfected cells; pcDNA1 vector
T1 sequence (Q12908 1-348): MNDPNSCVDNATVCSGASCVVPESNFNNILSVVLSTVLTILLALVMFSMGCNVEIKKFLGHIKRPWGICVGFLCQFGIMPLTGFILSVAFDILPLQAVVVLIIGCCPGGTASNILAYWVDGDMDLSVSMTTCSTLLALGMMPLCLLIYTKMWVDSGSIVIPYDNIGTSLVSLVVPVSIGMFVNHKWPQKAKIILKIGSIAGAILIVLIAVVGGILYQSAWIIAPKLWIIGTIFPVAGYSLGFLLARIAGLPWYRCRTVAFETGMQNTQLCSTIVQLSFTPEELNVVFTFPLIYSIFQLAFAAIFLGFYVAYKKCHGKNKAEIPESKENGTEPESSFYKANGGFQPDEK
Assay: in vitro IBAT inhibition assay: IBAT-dependent uptake of [3H]-taurocholic acid into CHO-hIBAT cells
Type: cell-based
Details: 10 μM taurocholic acid, 60 min at room temperature, read-out: IC-50 (human IBAT)
Protocol: The cell clone with the highest uptake activity for [^3H]-TCA, referred to hereinafter as CHO-hIBAT, was selected for the further assays and further cultured in the presence of 400 μg/ml Geneticin.
3. Measurement of the Inhibitory Effect of the Compound of the Invention on the IBAT-Dependent Uptake of Taurocholic Acid into Cells
CHO-hIBAT cells were seeded in a concentration of 40 000 cells per well in poly-D-lysine-coated 96-well plates in cell culture medium and cultured for 24 h. […] Finally, 100 μl of scintillation fluid were added to each well, and the radioactivity taken up into the cells was determined in a MicroBeta Scintillation Microplate Reader from Wallac.
The half-maximum inhibitory effect of the test compound (IC50 value, inhibitory concentration 50) was determined in the following way: • 1. […] This is the measurement in the absence of substance, measured in sodium-containing transport assay buffer. • 2. […] This is the measurement in the absence of substance, measured in sodium-free transport assay buffer. • 3. […]

pIC50	Compound
8.60	CCCC[C@]1(CC)CS(=O)(=O)c2ccc(N(C)C)cc2[C@@H](c2cccc(NC(=O)N[C@@H]3O[C@H](CO)[C@@H](O)[C@H](O)[C@H]3O)c2)[C@H]1O [Example 1]
8.22	CCCCC1(CCCC)CS(=O)(=O)c2ccc(N(C)C)cc2[C@@H](c2cccc(NC(=O)N[C@@H]3O[C@H](CO)[C@@H](O)[C@H](O)[C@H]3O)c2)[C@H]1O [Example 2]
